This note sets out measurements from PMC3427785 (The Journal of organic chemistry, 2012).

Where two headings read alike, the source gives them in different places. A value given as a limit tells only on which side of the number the result lay.

By IC50 is commonly meant the midpoint of a concentration-inhibition curve. The GI50 is the concentration at which growth is held to half of that of the control.

Data set [1] has as its system cytomegalovirus (CMV). In words: Anti-CMV activity in HEL cells as summarised in text. Format: cell-based.
The test system of data set [2] is HEL cells. In words: HEL cell growth inhibition. It is filed as cell-based, human. The settings on record: read-out: HEL cell effects, cell growth (IC50); concentration required to reduce cell growth by 50%.
In data set [3] the test system is colorectal carcinoma HCT116 cells. In words: Antiproliferative activity. It is filed as cell-based, human. The settings on record: read-out: GI50, HCT116, four days.
For data set [4], the system named is human ovarian cancer 1A9 cells. Nature of the data set: Antiproliferative activity. Conditions: read-out: GI50, 1A9; ovarian 1A9; four days. Format: cell-based.
For data set [5], the system named is 1A9-PTX22. Nature of the data set: Antiproliferative activity. It is filed as cell-based, human. The settings on record: read-out: GI50, PTX22; paclitaxel-resistant ovarian 1A9-PTX22; four days.
The test system of data set [6] is 1A9-PTX10. In words: Antiproliferative activity. Format: cell-based, human.
The test system of data set [7] is HCT116 p53 knockout cells. Format: cell-based, human. The settings on record: read-out: GI50, p53KO, four days.
The subject of data set [8] is feline kidney CRFK.
Data set [9] deals with green monkey kidney Vero.
Data set [10] relates to canine kidney MDCK.
In data set [11] the test system is vesicular stomatitis virus (VSV). It is filed as cell-based. The settings on record: read-out: anti-VSV activity; human cervix carcinoma HeLa cell cultures.
In data set [12] the test system is HeLa and HEL cell cultures.
In data set [13] the test system is vesicular stomatitis virus (VSV). Format: cell-based. The settings on record: human embryonic lung (HEL) fibroblast cell cultures.
In data set [14] the test system is cytomegalovirus (CMV) Davis strain. Nature of the data set: Anti-CMV activity. It is filed as cell-based. The settings on record: read-out: anti-CMV activity EC50, Davis strain.
Data set [15] deals with cytomegalovirus (CMV) AD-169 strain. Nature of the data set: Anti-CMV activity. Format: cell-based. Conditions: read-out: anti-CMV activity EC50, AD-169 strain.
The mark [16] stands for this setting: read-out: GI50, PTX10, paclitaxel-resistant ovarian 1A9-PTX10, four days.

Turning to “2-(4-n-Butyl-1,2,3-triazol-1H-yl)inosine [Compound 23]”, the “activity against cytomegalovirus (in words)” value in [1] (HEL cells) is recorded as “somewhat more pronounced”. In data set [2], the IC50 was over 250 µM. In addition, the concentration for 50% growth inhibition (GI50) in data set [3] was over 50 µM; in [4] it was 37 µM; in data set [5], 28.1 µM; in data set [6] (setting [16]) it was over 50 µM; in data set [7], over 50 µM.

Regarding “2-[4-(4-Fluorophenyl)-1,2,3-triazol-1H-yl]inosine [Compound 24]”, the GI50 in data set [3] was over 50 µM; in data set [4] it was 34 µM; in data set [5], 31 µM; in data set [6] (setting [16]), over 50 µM; in data set [7] it was over 50 µM.

As to “2-[4-(4-Methoxyphenyl)-1,2,3-triazol-1H-yl]inosine [Compound 19]”, the IC50 in data set [2] is over 230 µM. Moreover, the GI50 is over 50 µM in data set [3]; 29.5 µM in data set [4]; 8.56 µM in data set [5]; over 50 µM in data set [6] (setting [16]); over 50 µM in data set [7].

On to “2-[4-(4-Methylphenyl)-1,2,3-triazol-1H-yl]inosine [Compound 18]”, for which, in data set [1] (HEL cells), the “activity against cytomegalovirus (in words)” value was “marginal activity”. Further, the IC50 in data set [2] was at least 240 µM. Also, the GI50 in data set [3] is over 50 µM; in [4], 38 µM; in [5], 13.4 µM; in [6] (setting [16]), over 50 µM; in data set [7], over 50 µM.

“2-[4-(Ferrocenyl)-1,2,3-triazol-1H-yl]inosine [Compound 22]”: in data set [1] (HEL cells), the “activity against cytomegalovirus (in words)” value is on record as “marginal activity”. In addition, in data set [2], the IC50 turned out to be 123 µM. Also, the GI50 in data set [3] was over 50 µM; in data set [4] it was 29.7 µM; in [5], 12.9 µM; in data set [6] (setting [16]) it was over 50 µM; in [7] it was over 50 µM.

Consider “2-[4-(Hydroxymethyl)-1,2,3-triazol-1H-yl]inosine [Compound 20]”, for which the GI50 in data set [3] was over 50 µM; in data set [4], 20.4 µM; in data set [5] it was 3.53 µM; in [6] (setting [16]), over 50 µM; in data set [7], 42.6 µM.

On to “2-[4-(N-Phthalimidomethyl)-1,2,3-triazol-1H-yl]inosine [Compound 21]”, for which the IC50 in data set [2] is over 200 µM. In addition, the GI50 in data set [3] is over 50 µM; in [4], 6.32 µM; in data set [5] it was 14.1 µM; in [6] (setting [16]) it was over 50 µM; in data set [7], over 50 µM.

As for “6-(Morpholin-4-yl)-2-(4-phenyl-1,2,3-triazol-1H-yl)-9-(β-D-ribofuranosyl)purine [Compound 34]”, the “minimum detectable morphology-altering (cytotoxic) concentration (MCC)” value in data set [8] was 83 μM; in data set [9], 210 μM; in data set [10] it was 8.3 μM. In addition, the GI50 in [3] stood at 3.7 µM; in [4], 0.18 µM; in [5], 0.95 µM; in data set [6] (setting [16]), 11.7 µM; in data set [7], 10.4 µM.

With `OC[C@H]1O[C@@H](n2cnc3c(O)nc(-n4cc(-c5ccccc5)nn4)nc32)[C@H](O)[C@@H]1O` [Compound 17, 2-[4-(Phenyl)-1,2,3-triazol-1H-yl]inosine], in [11], the EC50 amounted to 27 ± 2.4 µM. In [12], this compound came in with a toxicity observed of 100 to 240 µM. In addition, the GI50 in data set [3] was over 50 µM; in data set [4], 22.8 µM; in [5], 4.76 µM; in data set [6] (setting [16]) it was over 50 µM; in data set [7] it was over 50 µM. In addition, in data set [13], the “anti-VSV activity (in words)” value is listed as “could not be confirmed”.

`OC[C@H]1O[C@@H](n2cnc3c(O)nc(-n4cc(-c5ccccc5)nn4)nc32)C[C@@H]1O` [Compound 25, 2-[4-(Phenyl)-1,2,3-triazol-1H-yl]-2′-deoxyinosine]: the “activity against cytomegalovirus (in words)” value in data set [1] is “marginal activity”. The IC50 in [2] came to 188 µM. For the same compound, the EC50 is 158 µM in data set [14] and at least 250 µM in [15]. Also, the GI50 in [3] was over 50 µM; in data set [4] it was 31 µM; in data set [5], 14.8 µM; in data set [6] (setting [16]) it was over 50 µM; in [7] it was over 50 µM.

Turning to `COc1ccc(-c2cn(-c3nc(O)c4ncn([C@H]5C[C@H](O)[C@@H](CO)O5)c4n3)nn2)cc1` [Compound 26, 2-[4-(4-Methoxyphenyl)-1,2,3-triazol-1H-yl]-2′-deoxyinosine], the EC50 in [14] and in data set [15] was over 240 µM each time. In addition, the GI50 was over 50 µM in [3]; 37.2 µM in data set [4]; 15.7 µM in data set [5]; over 50 µM in data set [6] (setting [16]); over 50 µM in data set [7].

As to `OCc1cn(-c2nc(O)c3ncn([C@H]4C[C@H](O)[C@@H](CO)O4)c3n2)nn1` [Compound 27, 2-[4-(Hydroxymethyl)-1,2,3-triazol-1H-yl]-2′-deoxyinosine], the EC50 in [14] and in data set [15] was over 290 µM in each case. The GI50 in data set [3] is over 50 µM; in [4] it was 49.4 µM; in [5] it was 32.9 µM; in data set [6] (setting [16]) it was over 50 µM; in data set [7] it was over 50 µM.

In the case of `O=C1c2ccccc2C(=O)N1Cc1cn(-c2nc(O)c3ncn([C@H]4C[C@H](O)[C@@H](CO)O4)c3n2)nn1` [Compound 28, 2-[4-(N-Phthalimidomethyl)-1,2,3-triazol-1H-yl]-2′-deoxyinosine], the EC50 in data set [14] and in data set [15] was over 210 µM in each case. Further, the GI50 was over 50 µM in data set [3]; 49.6 µM in data set [4]; 32.2 µM in [5]; over 50 µM in [6] (setting [16]); over 50 µM in data set [7].

Regarding `OC[C@H]1O[C@@H](n2cnc3c(O)nc(-n4cc(-[c-]5cccc5)nn4)nc32)C[C@@H]1O.[Fe+2].c1cc[cH-]c1` [Compound 29, 2-[4-(Ferrocenyl)-1,2,3-triazol-1H-yl]-2′-deoxyinosine], the IC50 in [2] is over 200 µM. Further, the EC50 in data set [14] and in [15] was at least 200 µM each time. For the same compound, the GI50 in data set [3] is over 50 µM; in data set [4], 41.6 µM; in data set [5], 18 µM; in data set [6] (setting [16]), over 50 µM; in data set [7] it was over 50 µM.

For the compound `CCCCc1cn(-c2nc(O)c3ncn([C@H]4C[C@H](O)[C@@H](CO)O4)c3n2)nn1` [Compound 30, 2-(4-n-Butyl-1,2,3-triazol-1H-yl)-2′-deoxyinosine], the EC50 in data set [14] and in data set [15] was over 270 µM each time. For the same compound, the GI50 in data set [3] is over 50 µM; in [4], 46.1 µM; in data set [5], 26.9 µM; in data set [6] (setting [16]) it was over 50 µM; in [7], over 50 µM.

In the case of `OC[C@H]1O[C@@H](n2cnc3c(NCc4ccccc4)nc(-n4cc(-c5ccccc5)nn4)nc32)[C@H](O)[C@@H]1O` [Compound 35, 6-(N-Benzyl)-2-[4-(phenyl)-1,2,3-triazol-1H-yl]adenosine], the GI50 in [3] was 43.6 µM; in data set [4], 5 µM; in data set [5], 24.5 µM; in data set [6] (setting [16]), over 50 µM; in data set [7] it was over 50 µM.

Consider `CC(=O)O[C@H]1C(=O)[C@@]2(C)[C@H]([C@H](OC(=O)c3ccccc3)[C@]3(O)C[C@H](OC(=O)[C@H](O)[C@@H](NC(=O)c4ccccc4)c4ccccc4)C(C)=C1C3(C)C)[C@]1(OC(C)=O)CO[C@@H]1C[C@@H]2O` [paclitaxel, reference compound], for which, in data set [6] (Homo sapiens, 1A9/ptx-10, read-out: GI50, PTX10), the GI50 came out at 0.079 µM.
